From patent US8927738B2, “2-arylimidazole derivatives as PDE10A enzyme inhibitors” (H. Lundbeck A/S, priority 2009, dated 2015)

target: PDE10A enzyme (Homo sapiens (Human), UniProt Q9Y233); experiment: PDE10A inhibition assay; format: biochemical; settings: tritium labeled cAMP substrate 5 nM
Method: Active PDE10A enzyme is prepared in a number of ways for use in PDE assays (Loughney, K. et al. Gene 1999, 234, 109-117; Fujishige, K. et al. Eur J Biochem. 1999, 266, 1118-1127 and Soderling, S. et al. Proc. Natl. Acad. Sci. 1999, 96, 7071-7076). PDE10A can be expressed as full-length proteins or as truncated proteins, as long as they express the catalytic domain. PDE10A can be prepared in different cell types, for example insect cells or E. coli. An example of a method to obtain catalytically active PDE10A is as follows: The catalytic domain of human PDE10A (amino acids 440-779 from the sequence with accession number NP 006652) is amplified from total human brain total RNA by standard RT-PCR and is cloned into the BamH1 and Xho1 sites of the pET28a vector (Novagen). Expression in coli is performed according to standard protocols. Briefly, the expression plasmids are transformed into the BL21(DE3) E. coli strain, and 50 mL cultures inoculated with the cells allowed to grow to an OD600 of 0.4-0.6 before protein expression is induced with 0.5 mM IPTG. Following induction, the cells are incubated overnight at room temperature, after which the cells are collected by centrifugation. Cells expressing PDE10A are resuspended in 12 mL (50 mM TRIS-HCl-pH8.0, 1 mM MgCl2 and protease inhibitors). The cells are lysed by sonication, and after all cells are lysed, TritonX100 is added according to Novagen protocols.
A PDE10A assay may for example, be performed as follows: The assay is performed in 60 uL samples containing a fixed amount of the relevant PDE enzyme (sufficient to convert 20-25% of the cyclic nucleotide substrate), a buffer (50 mM HEPES7.6; 10 mM MgCl2; 0.02% Tween20), 0.1 mg/ml BSA, 225 pCi of ^3H-labelled cyclic nucleotide substrate, tritium labeled cAMP to a final concentration of 5 nM and varying amounts of inhibitors. Reactions are initiated by addition of the cyclic nucleotide substrate, and reactions are allowed to proceed for one hr at room temperature before being terminated through mixing with 15 uL 8 mg/mL yttrium silicate SPA beads (Amersham). The beads are allowed to settle for one hr in the dark before the plates are counted in a Wallac 1450 Microbeta counter. The measured signal can be converted to activity relative to an uninhibited control (100%) and IC50 values can be calculated using the Xlfit extension to EXCEL.

Chain of PDE10A enzyme (Q9Y233 716-1055): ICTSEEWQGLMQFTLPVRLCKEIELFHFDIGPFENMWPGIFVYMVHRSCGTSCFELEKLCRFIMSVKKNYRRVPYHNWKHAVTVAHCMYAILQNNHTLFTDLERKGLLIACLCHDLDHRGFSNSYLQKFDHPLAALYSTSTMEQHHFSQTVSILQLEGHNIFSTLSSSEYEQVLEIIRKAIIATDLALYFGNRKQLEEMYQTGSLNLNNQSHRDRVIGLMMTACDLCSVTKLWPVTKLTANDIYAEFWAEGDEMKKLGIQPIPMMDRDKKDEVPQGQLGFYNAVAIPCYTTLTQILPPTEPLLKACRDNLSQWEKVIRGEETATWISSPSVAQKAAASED

Structure (SMILES)	IC50
Cc1ncc(C)n2nc(CCc3cn(C)c(-c4ccco4)n3)nc12 [2-[2-(2-Furan-2-yl-1-methyl-1H-imidazol-4-yl)-ethyl]-5,8-dimethyl-[1,2,4]triazolo[1,5-a]pyrazine]	1.1 nM
Cc1ccc(C)n2nc(CCc3cn(C)c(-c4ccco4)n3)nc12 [2-[2-(2-Furan-2-yl-1-methyl-1H-imidazol-4-yl)-ethyl]-5,8-dimethyl-[1,2,4]triazolo[1,5-a]pyridine]	0.75 nM
Cc1ncc(C)n2nc(CCc3c[nH]c(-c4ccco4)n3)nc12 [2-[2-(2-Furan-2-yl-1H-imidazol-4-yl)-ethyl]-5,8-dimethyl-[1,2,4]triazolo[1,5-a]pyrazine]	0.97 nM
Cc1ccc(C)n2nc(CCc3c[nH]c(-c4ccco4)n3)nc12 [2-[2-(2-Furan-2-yl-1H-imidazol-4-yl)-ethyl]-5,8-dimethyl-[1,2,4]triazolo[1,5-a]pyridine]	0.62 nM
Cc1ncc(C)n2nc(CCc3c[nH]c(-c4ccoc4)n3)nc12 [2-[2-(2-Furan-3-yl-1H-imidazol-4-yl)-ethyl]-5,8-dimethyl-[1,2,4]triazolo[1,5-a]pyrazine]	0.27 nM
Cc1ccc(C)n2nc(CCc3c[nH]c(-c4ccoc4)n3)nc12 [2-[2-(2-Furan-3-yl-1H-imidazol-4-yl)-ethyl]-5,8-dimethyl-[1,2,4]triazolo[1,5-a]pyridine]	0.65 nM
Cc1ncc(C)n2nc(CCc3c[nH]c(-c4ccc(F)cc4)n3)nc12 [2-{2-[2-(4-Fluoro-phenyl)-1H-imidazol-4-yl]-ethyl}-5,8-dimethyl-[1,2,4]triazolo[1,5-a]pyrazine]	12 nM
Cc1ncc(C)n2nc(CCc3cn(C)c(-c4ccccc4)n3)nc12 [5,8-Dimethyl-2-[2-(1-methyl-2-phenyl-1H-imidazol-4-yl)-ethyl]-[1,2,4]triazolo[1,5-a]pyrazine]	45 nM
Cc1ncc(C)n2nc(CCc3cn(C)c(-c4nccs4)n3)nc12 [5,8-Dimethyl-2-[2-(1-methyl-2-thiazol-2-yl-1H-imidazol-4-yl)-ethyl]-[1,2,4]triazolo[1,5-a]pyrazine]	7.7 nM
Cc1ncc(C)n2nc(CCc3cn(C)c(-c4cscn4)n3)nc12 [5,8-Dimethyl-2-[2-(1-methyl-2-thiazol-4-yl-1H-imidazol-4-yl)-ethyl]-[1,2,4]triazolo[1,5-a]pyrazine]	11 nM
Cc1ncc(C)n2nc(CCc3cn(C)c(-c4cncs4)n3)nc12 [5,8-Dimethyl-2-[2-(1-methyl-2-thiazol-5-yl-1H-imidazol-4-yl)-ethyl]-[1,2,4]triazolo[1,5-a]pyrazine]	22 nM
Cc1ncc(C)n2nc(CCc3cn(C)c(-c4cccs4)n3)nc12 [5,8-Dimethyl-2-[2-(1-methyl-2-thiophen-2-yl-1H-imidazol-4-yl)-ethyl]-[1,2,4]triazolo[1,5-a]pyrazine]	1 nM
Cc1ncc(C)n2nc(CCc3c[nH]c(-c4ccccc4)n3)nc12 [5,8-Dimethyl-2-[2-(2-phenyl-1H-imidazol-4-yl)-ethyl]-[1,2,4]triazolo[1,5-a]pyrazine]	4.2 nM
Cc1ncc(C)n2nc(CCc3c[nH]c(-c4nccs4)n3)nc12 [5,8-Dimethyl-2-[2-(2-thiazol-2-yl-1H-imidazol-4-yl)-ethyl]-[1,2,4]triazolo[1,5-a]pyrazine]	0.63 nM
Cc1ccc(C)n2nc(CCc3c[nH]c(-c4nccs4)n3)nc12 [5,8-Dimethyl-2-[2-(2-thiazol-2-yl-1H-imidazol-4-yl)-ethyl]-[1,2,4]triazolo[1,5-a]pyridine]	1.6 nM
Cc1ncc(C)n2nc(CCc3c[nH]c(-c4cscn4)n3)nc12 [5,8-Dimethyl-2-[2-(2-thiazol-4-yl-1H-imidazol-4-yl)-ethyl]-[1,2,4]triazolo[1,5-a]pyrazine]	3.5 nM
Cc1ccc(C)n2nc(CCc3c[nH]c(-c4cscn4)n3)nc12 [5,8-Dimethyl-2-[2-(2-thiazol-4-yl-1H-imidazol-4-yl)-ethyl]-[1,2,4]triazolo[1,5-a]pyridine]	3.5 nM
Cc1ncc(C)n2nc(CCc3c[nH]c(-c4cncs4)n3)nc12 [5,8-Dimethyl-2-[2-(2-thiazol-5-yl-1H-imidazol-4-yl)-ethyl]-[1,2,4]triazolo[1,5-a]pyrazine]	6.5 nM
Cc1ccc(C)n2nc(CCc3c[nH]c(-c4cncs4)n3)nc12 [5,8-Dimethyl-2-[2-(2-thiazol-5-yl-1H-imidazol-4-yl)-ethyl]-[1,2,4]triazolo[1,5-a]pyridine]	3.1 nM
Cc1ncc(C)n2nc(CCc3c[nH]c(-c4cccs4)n3)nc12 [5,8-Dimethyl-2-[2-(2-thiophen-2-yl-1H-imidazol-4-yl)-ethyl]-[1,2,4]triazolo[1,5-a]pyrazine]	0.4 nM
Cc1ccc(C)n2nc(CCc3c[nH]c(-c4cccs4)n3)nc12 [5,8-Dimethyl-2-[2-(2-thiophen-2-yl-1H-imidazol-4-yl)-ethyl]-[1,2,4]triazolo[1,5-a]pyridine]	0.34 nM
Cc1ccc(-c2nc(CCc3nc4c(C)ncc(C)n4n3)cn2C)o1 [5,8-Dimethyl-2-{2-[1-methyl-2-(5-methyl-furan-2-yl)-1H-imidazol-4-yl]-ethyl}-[1,2,4]triazolo[1,5-a]pyrazine]	3.5 nM
CCc1ccc(C)n2nc(CCc3cn(C)c(-c4ccccc4)n3)nc12 [8-Ethyl-5-methyl-2-[2-(1-methyl-2-phenyl-1H-imidazol-4-yl)-ethyl]-[1,2,4]triazolo[1,5-a]pyridine]	23 nM
COc1ccc(C)n2nc(CCc3cn(C)c(-c4ccccc4)n3)nc12 [8-Methoxy-5-methyl-2-[2-(1-methyl-2-phenyl-1H-imidazol-4-yl)-ethyl]-[1,2,4]triazolo[1,5-a]pyridine]	79 nM
COc1ccc(C)n2nc(CCc3cn(C)c(-c4cccs4)n3)nc12 [8-Methoxy-5-methyl-2-[2-(1-methyl-2-thiophen-2-yl-1H-imidazol-4-yl)-ethyl]-[1,2,4]triazolo[1,5-a]pyridine]	9 nM
COc1ccc(C)n2nc(CCc3c[nH]c(-c4ccccc4)n3)nc12 [8-Methoxy-5-methyl-2-[2-(2-phenyl-1H-imidazol-4-yl)-ethyl]-[1,2,4]triazolo[1,5-a]pyridine]	5.9 nM

tested on: rats; experiment: not given; settings: papaverine alone; cited from earlier work

Structure (SMILES)	catalepsy caused on its own
COc1ccc(Cc2nccc3cc(OC)c(OC)cc23)cc1OC [Papaverine, papaverine]	did not cause catalepsy on its own

same assay, conditions: with the D2 receptor antagonist haloperidol; cited from earlier work

Structure (SMILES)	effect on the cataleptic effect of haloperidol
COc1ccc(Cc2nccc3cc(OC)c(OC)cc23)cc1OC [Papaverine, papaverine]	potentiated the cataleptic effect

tested on: rats; experiment: not given; settings: cited from earlier work

Structure (SMILES)	hyperactivity induced by PCP
COc1ccc(Cc2nccc3cc(OC)c(OC)cc23)cc1OC [Papaverine, papaverine]	reduced hyperactivity

tested on: rats; experiment: not given; settings: cited from earlier work; remark: another data set of the same source

Structure (SMILES)	reduction of amphetamine induced hyperactivity
COc1ccc(Cc2nccc3cc(OC)c(OC)cc23)cc1OC [Papaverine, papaverine]	insignificant
